Measurements taken from US10865203B2, “Ligands selective to alpha 6 subunit-containing GABAA receptors and their methods of use” (UWM Research Foundation, Inc., priority 2015, dated 2020).

Experiments:
IoN-CCl Wistar rats [1] = assay: IoN-CCl model, face grooming during body grooming; format: in vivo, rat; conditions: 10 mg/kg i.p. daily; 10 min of recording
Procedure: (§1) Chronic constriction injury (CCl) is a common neuropathic pain model. The unilateral ligature of the infraorbital nerve (IoN) in rats, as an animal model of peripheral neuropathic pain, and more specifically, trigeminal neuralgia and trigeminal neuropathy, was performed as described by Desuere and Hans (Deseure et al. J. Vis. Exp. 2015, 103, e53167). Wistar rats (46 in total) were randomly assigned to one of four experimental groups and then were behaviorally tested in a blinded manner. For studying the effects of subchronic treatment with the nanoemulsion formulation of DK-I-56-1 in IoN-CCl rats, DK-I-56-1 (10 mg/kg i.p.) or its vehicle (placebo nanoemulsion i.p.) were injected daily for 14 consecutive days after surgery. Sham-operated rats were treated in parallel. By a procedure slightly modified from Djordjevic et al. (Int. J. Pharm. 2015, 493, 40-54), biocompatible nanoemulsions were prepared by high pressure homogenization at 50° C. […] First, the response to the application of a graded series of three von Frey filaments onto ipsilateral vibrissal pad was measured on pre-operative days −3 and −1 and post-operative days 7, 14, 21, and 28. […] The other parameter, face grooming during body grooming, was manually assessed during 10 min of recording on pre-operative day −2 and post-operative days 2, 4, 8, and 15 (i.e. after 1, 3, 7, and 14 applications of treatment). […]

IoN-CCl Wistar rats [2] = assay: IoN-CCl neuropathic pain model, von Frey filaments; format: in vivo, rat
Procedure: as §1

[3] = Pharmacokinetic study in mice, plasma and brain; format: in vivo, mouse; conditions: nanoemulsion
Procedure: Five pharmacokinetic studies have been performed; four in male Wistar rats and one in male Swiss mice. […] At predetermined time intervals, i.e., 5, 20, 60, 180, and 720 min after dosing, the blood and brain samples of the rat were collected. […] At predetermined time intervals, i.e., 5, 20, 40, 120, and 360 min, the blood and brain samples of the mouse were collected.

mice, step-down latency = assay: Sedation assessment; format: in vivo, mouse; conditions: 3 mg/kg i.p.
Procedure: The degree of sedation was measured by the latency for a mouse to completely step down from a slightly (3 cm) raised plastic platform (11×8 cm) by reference to a previous report (Horan et al. 1991). The mouse was placed on the platform 15 min after receiving i.p. Injection of the tested drug. The latency (in sec) for the mouse to step down the platform with all four paws was recorded. The baseline latency of each mouse before drug treatment was measured and, if longer than 15 sec, the mouse was discarded from the study. A cut-off time of 60 sec was taken as the maximal sedative effect. The percentage of sedation was calculated by the formula: sedation %=(test latency−baseline latency)/(60−baseline latency)×100%.

[4] = Half-life in liver microsomes (Example 4); format: in vitro ADME; conditions: rat and human liver microsomes, species of the value not stated
Excerpt: Metabolic pathways that may disrupt the activity of compounds with aryl methoxy groups were investigated.

[5] = tested on: mice, forelimb grip strength; assay: Grip strength test; format: in vivo, mouse; conditions: 3 mg/kg, 15 min after treatment
Procedure: Forelimb grip strength was measured by the grip force of forepaws of the mouse using the sdi grip strength system (San Diego Instrument, San Diego, Calif.). The grip strength was recorded by the maximum of three permissible readings (in grams). The test was conducted every 2 min for three times, and the averaged grip strength was recorded. Animals were treated with the tested drug or vehicle for 15 min before the test.

[6] = tested on: mice, methamphetamine-induced hyperlocomotion; assay: Locomotor activity, methamphetamine-induced hyperlocomotion; format: in vivo, mouse
Procedure: The locomotor activity of the mouse was measured by its interruptions of infra-red photobeans in a locomotor cage (42 cm×42 cm×36 cm) in the photobeam activity system (San Diego Instruments, San Diego, Calif.). After acclimation, the mouse was treated with ci extract or vehicle for 15 min, followed by ma (2 mg/kg). Then, the mouse was gently placed in the locomotor cage and the horizontal and vertical interruptions were counted every 5 min for 60 min. Total locomotor activity was the sum of interruptions within 60 min.
Mice were anaesthetized with sodium pentobarbital (60 mg/kg i.p.) And placed in a stereotaxic frame keeping the bregma-lambda axis horizontal. After shaving the hair and exposing the skull surface, the mouse was implanted with two 24-gauge stainless-steel guide cannulas, respectively, directing towards the right and left lateral cerebella (−6.4 mm caudal, ±1.5 mm lateral, −1.0 mm ventral from bregma) according to the stereotaxic coordinate of the mouse (Paxions 2001). The cannulas were fixed on the top of the skull by stainless steel screws and dental cement. The animal was allowed to fully recover after surgery for at least one week before the behavioral test was conducted.
On the day for behavioral tests, a 30-gauge injection cannula connected to a 1 μL hamilton syringe was inserted into the guide cannula for drug injection. The drug solution of 0.5 μL in each side was slowly infused with a microinfusion pump (kds311, kd scientific inc.) For 30 s with a further “hold” time for 60 s. The microinjection site was confirmed by the positive staining of trypan blue, which was injected through the cannula after behavioral tests. Data from mice with offsite injections were discarded.

| Compound | face grooming during body grooming (IoN-CCl Wistar rats [1]) | anti-allodynic effect, response score to von Frey filaments, post-operative days 14 and 21 (IoN-CCl Wistar rats [2]; 10 mg/kg i.p. nanoemulsion daily for 14 days after surgery) | anti-allodynic effect, post-operative day 28 (IoN-CCl Wistar rats [2]; 14 days after the last dose) | total concentrations in mouse brain ([3]; 10 mg/kg i.p.) | maximum concentration in mouse brain ([3]; 30 mg/kg i.p.) [µmol/L] | sedation (mice, step-down latency) | half-life [4] [h] | grip strength [5] | effect of intra-cerebellum furosemide on the rescue of hyperlocomotion ([6]; furosemide 10 nmol) | methamphetamine-induced hyperlocomotion ([6]; mice, 3 mg/kg i.p., METH 2 mg/kg i.p., 60 min) | spontaneous motor activity ([6]; mice, 3 mg/kg i.p., saline instead of METH) |
| --- | --- | --- | --- | --- | --- | --- | --- | --- | --- | --- | --- |
| [2H]C([2H])([2H])Oc1ccc(-n2nc3c4ccc(OC)cc4[nH]cc-3c2=O)cc1 [DK-I-56-1, 7-Methoxy-2-(4-methoxy-d3-phenyl)-2,5-dihydro-3H-pyrazolo[4,3-c]quinolin-3-one] | lack of sedation-like or motor-impairing influences | statistically significant | disappeared | submicromolar | 7.5 | – | – | – | – | – | – |
| COc1ccc(-n2nc3c4ccc(OC)cc4[nH]cc-3c2=O)cc1 [Compound 6, 7-Methoxy-2-(4-methoxyphenyl)-2,5-dihydro-3H-pyrazolo[4,3-c]quinolin-3-one] | – | – | – | – | – | neither displayed any significant sedation | 2.92 | did not affect | significantly antagonized | significantly rescued | did not affect |
